Our source for the melting point values is a melting point compilation (Tetko et al.).

The structures appear in SMILES notation.

By melting point is commonly meant the temperature, or range, at which the solid turns liquid. `CC(=O)C1C(=O)c2ccccc2CC1c1ccccc1` (stereo unspecified) had a melting point of 67 °C.
Under `C#CCCCCCCCCCCCCCCC` stands 22 °C; under `CC1=NN(c2ccccc2)C(=O)C1C1C(=O)N(c2ccccc2)N=C1C` (stereo unspecified), 355 °C.
Compound `CC(=O)C=CC1C(C)=CCCC1(C)C` (stereo unspecified) showed a melting point of less than 25 °C.
In turn, `O=NN1CCOCC1` came in with a melting point of 29 °C.
Compound `COc1ccc(-c2onc(C(=O)c3ccco3)c2S(=O)(=O)c2ccccc2)cc1` came in with a melting point of 150 °C.
Under `CN(C(=O)OC(C)(C)C)C(C)(C)C(=O)O` stands 153 to 157 °C; under `COc1ccc(C(C=C(SC)SC)=C(C#N)C#N)cc1`, 149 to 152 °C; under `Nc1ccc(Br)cc1F`, 40 °C.
The result for `CC(C)(C(=O)c1cccnc1)c1cccnc1` reads 50.5 °C; that for `N=C(N)c1ccc(N)cc1`, 182 °C; that for `O=[N+]([O-])c1ccc(CCBr)cc1`, 69 °C.
With `N#Cc1c(F)cc(Br)cc1F`, the melting point amounted to 81 °C.
Under `CC(C)(C)OC(=O)NC1(C(=O)O)CCc2ccccc21` (racemic) stands 156 to 159 °C; under `Cc1cc(C)cc(OCC2CNC(=O)O2)c1` (stereo unspecified), 122 °C.
Under `COc1ccc(NC(=O)C(C(F)(F)F)C(F)(F)F)cc1` stands 185 to 187 °C; under `CC(C)S(=O)(=O)c1csc(C(=O)Cl)c1Cl`, 170 to 171 °C.
Under `C=CCOc1ccc(NC(C)=O)cc1` stands 90 to 92 °C; under `CC(C)OC=O`, -80 °C; under `CC=C(c1ccccc1)c1ccccc1`, 49 °C.
Take `Cn1ccc2cc(C(=O)O)ccc21`: the melting point lay in the range of 221 to 223 °C.
Under `c1ccc(OCCOCCOc2ccccc2)cc1` stands 66 °C; under `Cc1nc2ccc(I)cc2s1`, 134 to 137 °C; under `CC(C)(C)OC(=O)N1CCN(CCC(=O)O)CC1`, 138 to 139 °C.
The result for `COc1cc(CC2c3cc(OC)c(OC)cc3CCN2C)c(Oc2cc3c(cc2OC)-c2c(OC)c(OC)cc4c2C(C3)N(C)CC4)cc1OC` (stereo unspecified) reads 160 °C; that for `Cc1ccc2sc(C(=O)O)cc2c1`, 222 to 223 °C.
For `O=S(=O)(Cl)c1cccc2cccnc12`, the melting point stood at 129 °C.
As for `CCCCC(=O)OCC(=O)C1C(C)CC2C3CC(F)C4=CC(=O)C=CC4(C)C3(F)C(O)CC21C` (stereo unspecified), the melting point came out at 195 °C.
In turn, `O=C(O)c1c(O)cccc1O` registered a melting point of 160 to 165 °C.
Under `NNC(=O)C1CC1C(=O)NN` (stereo unspecified) stands 187 to 191 °C; under `CCS(=O)(=O)C(C)(C)S(=O)(=O)CC`, 126 °C; under `O=C(O)COc1ccccc1Br`, 141 to 145 °C.
The result for `O=[N+]([O-])c1ccc(SSc2ccc([N+](=O)[O-])cc2)cc1` reads 182 °C; that for `Ic1ccc(Cc2ccccc2)cc1`, 38 to 40 °C.
Under `COCc1cc(=O)oc2cc(N)ccc12` stands 184 °C; under `OCc1csc2ccc(Br)cc12`, 79 to 81 °C.
For the compound `N#CCc1ccc(Oc2ccc([N+](=O)[O-])cn2)cc1`, the melting point is 118 to 119 °C.
In turn, `Cc1oc(-c2ccc(Cl)cc2)cc1C(=O)Cl` registered a melting point of 122 to 124 °C.
Regarding `N#Cc1conc1N`, the melting point was found to be 140 °C.
`Oc1cc(F)ccc1F` registered a melting point of 38 °C.
The result for `CC(C)(C)C(=O)C(Oc1ccc(Cl)cc1)n1cncn1` (stereo unspecified) reads 82.3 °C; that for `C/C(CCc1oc2ccc(C)cc2c1-c1ccc(C)o1)=N/O`, 103 to 104 °C; that for `COc1cc(OC)c2cc(C(=O)c3cccc4ccccc34)c(=O)oc2c1`, 210 °C.
The result for `O=C(O)C1CSC(c2cccnc2)=N1` (stereo unspecified) reads 180 to 181 °C.
The result for `CC(=O)C12OC(C)(c3ccccc3)OC1CC1C3CCC4=CC(=O)CCC4(C)C3CCC12C` (stereo unspecified) reads 150 °C; that for `Cc1cc(N)c(N)cc1Cl`, 137 to 140 °C.
Take `O=C(O)c1ccc(-c2ccco2)cc1`: the melting point was in the range of 231 to 232 °C.
In the case of `Cc1cc(C)c2c(c1C)CC2=O`, the melting point is 98 °C.
The compound `Cc1cc(Cl)cc([N+](=O)[O-])c1N` yielded a melting point of 126 to 132 °C.
The result for `Cc1cc(Cl)ncc1N` reads 69 to 73 °C; that for `O=C(O)c1ccc2c(c1)C(=O)c1ccccc1-2`, 341 °C; that for `O=C(O)c1cccnc1F`, 164 to 165 °C.
Under `Cc1cc(O)c([N+](=O)[O-])cc1Cl` stands 133 °C.
The result for `CCSC(=O)COc1ccc(Cl)cc1C` reads 41.5 °C; that for `Nc1ccc(N=Nc2ccc(N=Nc3ccc(N)cc3)cc2)cc1`, 247 °C; that for `O=C(/C=C/c1ccco1)c1ccc(O)cc1`, 163 °C.
On to `CCOC(=O)c1nn(-c2ccc(C)cc2)c(C)c1C(=O)C1=NOC2C(=O)N(c3ccc(OC)cc3)C(=O)C12` (stereo unspecified), for which the melting point is 221 °C.
For `COc1ccc(/N=N/c2c(N)nn3c(C)cc(C)nc23)cc1`, the melting point lay in the range of 201 to 203 °C.
As for `O=C(O)CC(c1ccccc1)c1ccccc1`, the melting point was 150 to 155 °C.
In the case of `Cc1c(C)c2c(c(C)c1O)CCC(C)(C(=O)O)O2` (stereo unspecified), the melting point stood at 189 °C.
Under `Cc1ccc(C)c(NN=C2C(=O)NN=C2C(F)(F)F)c1` stands 189 °C.
The result for `N#CCCCCCCCCC#N` reads 7 °C; that for `Ic1cccc2nsnc12`, 96 to 97 °C.
The result for `O=c1[nH]c(-c2ccccc2)cc2ccncc12` reads 239 °C; that for `CCCCOC(=O)C(=O)OCCCC`, -29 °C.
Compound `COP(=S)(Oc1cc(Cl)c(Br)cc1Cl)c1ccccc1` (stereo unspecified) yielded a melting point of 70.4 °C.
The result for `N#CC(C(N)=O)=C(SCc1ccccc1)SCc1ccccc1` reads 104 °C; that for `CC(CCl)OC(C)CCl` (stereo unspecified), -97 °C; that for `C=C(C)C(=O)OCCN(C)C`, -30 °C.
Under `CCC1(CC)C(=O)CCNC1=O` stands 102 °C; under `O=C(Nc1ccc([N+](=O)[O-])cc1)Nc1ccc([N+](=O)[O-])cc1`, 312 °C; under `Cc1ccc(NC(=O)C(F)(F)C(F)(F)C(F)(F)C(F)(F)C(F)(F)C(F)(F)C(F)(F)C(F)(F)F)cc1C`, 111 °C.
Under `CC1C(=O)C2(C)CCC1C2(C)C` (stereo unspecified) stands 38 °C.
As for `CC(O)=NNC(N)=O`, the melting point was 165 °C.
The result for `Cc1c(C)c([N+](=O)[O-])c(C)c(C)c1[N+](=O)[O-]` reads 212 °C; that for `O=C(O)C1=CCCC1`, 119 °C.
Under `Cc1cc(N)c([N+](=O)[O-])cc1C` stands 141 °C; under `COC1C(OC(=O)C=CC=CC=CC=CC(=O)O)CCC2(CO2)C1C1(C)OC1CC=C(C)C` (stereo unspecified), 194 °C; under `OCCN(CCO)c1ccccc1`, 57 °C.
Under `O=S1(=O)Cc2ncc3ccccc3c2C1` stands 210 °C; under `C=C1C(=O)C23C(OC(C)=O)CC4C5(C)CCCC4(C(OC(C)=O)OC5)C2C(OC(C)=O)CC1C3OC(C)=O` (stereo unspecified), 224 °C; under `CCCOc1ccc(C(N)=NO)cc1`, 105 to 106 °C.
`CCOC(=O)C1=C(C)NC(=O)NC1c1ccc2c(c1)OCO2` (stereo unspecified) showed a melting point of 189 °C.
With `O=C(N[C@@H]1CCCC[C@@H]1C(=O)O)c1ccccc1`, the melting point fell in the range of 204 to 208 °C.
In the case of `C/C(CCc1oc2c(Br)cc(Br)cc2c1-c1ccc(C)o1)=N/O`, the melting point is 157 to 158 °C.
`Fc1ccc(S)cc1F` displayed a melting point of 34 to 38 °C.
`O=[N+]([O-])c1ccc(N/N=C2\Cc3c2ccc2ccccc32)c([N+](=O)[O-])c1` returned a melting point of 273 to 276 °C.
`CC(NC(CCCNC(=N)N)C(=O)O)C(=O)O` (single isomer, unassigned; (+)): the melting point fell in the range of 283 to 284 °C.
`CCOC(=O)c1nc(-c2cncc(Br)c2)no1` showed a melting point of 101 to 103 °C.
Compound `Cc1cc(C=O)nn1C` returned a melting point of 56 to 57 °C.
`CN(C)c1ccc(C(O)(c2ccccc2)c2ccc(N(C)C)cc2)cc1` had a melting point of 113 °C.
The compound `O=C(O)c1cc2cc(OCc3ccccc3)ccc2[nH]1` gave a melting point of 197 °C.
On to `CC1COc2c(C3(N)CC3)c(F)cc3c(=O)c(C(=O)O)cn1c23` (stereo unspecified), for which the melting point was 269 °C.
As to `O=C(c1ccc(F)cc1)[C@H]1CCCC[C@H]1C(=O)O` (relative stereo), the melting point fell in the range of 136 to 139 °C.
The compound `CC1=C(C(=O)OCc2ccccc2)C(c2ccccc2)N(C)C(=O)N1C` (stereo unspecified) registered a melting point of 86 °C.
`O=C(c1ccc2c(c1)C(=O)OC2=O)c1ccc2c(c1)C(=O)OC2=O` showed a melting point of 219 to 226 °C.
Turning to `CC1=NCCNc2c1c(=O)n(-c1ccccc1)c1ccccc21`, the melting point worked out at 221 °C.
`CCOC(=O)c1nn(-c2ccccc2)c(=N)c(-c2nc3ccccc3s2)c1C` returned a melting point of 148 °C.
Under `O=Cc1cc(Cl)ccc1[N+](=O)[O-]` stands 75 to 77 °C.
In turn, `O=Cc1ccccc1CN1CCOCC1` returned a melting point of 67 to 68 °C.
The result for `Clc1c(Cl)c(Cl)c2c(c1Cl)OC1Cc3ccccc3C1O2` (stereo unspecified) reads 159 °C; that for `O=[N+]([O-])c1cccnc1Oc1ccccc1F`, 90 to 92 °C; that for `Fc1c(F)c(F)c(S)c(F)c1F`, -24 °C.
The result for `CC(=O)Oc1cc(OC(C)=O)c2c(=O)c(OC(C)=O)c(-c3ccc(OCc4ccccc4)cc3)oc2c1` reads 150 °C.
`COc1ccc(C(=O)c2nn3c(nc(=O)c4ccccc43)s2)cc1` registered a melting point of 179 °C.
The result for `CCCCCCCCCCCCCCCC(=O)OCC=C(C)C=CC=C(C)C=CC1=C(C)CCCC1(C)C` reads 28.5 °C.
